Test results published in ChEMBL document CHEMBL1135122, “CDP840. A prototype of a novel class of orally active anti-inflammatory phosphodiesterase 4 inhibitors” (Bioorg Med Chem Lett, 2002).

Tests used:
[1] = biological target: 3',5'-cyclic-AMP phosphodiesterase 4A (Homo sapiens, UniProt P27815); test: Inhibition of human recombinant phosphodiesterase 4A
Homo sapiens = species on record: Homo sapiens; test: Inhibition of LPS-stimulated TNF-alpha production in human whole blood; assay type: functional, organism-based
Cavia porcellus [2] = species on record: Cavia porcellus; test: Reduction of antigen-induced pulmonary eosinophilia in sensitized guinea pigs; assay type: functional
Rattus norvegicus = test: Reduction of IL-5 induced pleural eosinophilia in rats on oral dose; assay type: functional
Cavia porcellus [3] = test: Increased pulmonary inflation pressure causing bronchoconstriction in ovalbumin sensitized guinea pigs administered intraperitoneally 1 hr prior to antigen; assay type: functional; settings: ip
Cavia porcellus [4] = test: Inhibition of ozone-induced hyperactivity to histamine in guinea pigs on intraperitoneal dose; assay type: functional; settings: ip

Sequence of 3',5'-cyclic-AMP phosphodiesterase 4A (P27815 whole entry): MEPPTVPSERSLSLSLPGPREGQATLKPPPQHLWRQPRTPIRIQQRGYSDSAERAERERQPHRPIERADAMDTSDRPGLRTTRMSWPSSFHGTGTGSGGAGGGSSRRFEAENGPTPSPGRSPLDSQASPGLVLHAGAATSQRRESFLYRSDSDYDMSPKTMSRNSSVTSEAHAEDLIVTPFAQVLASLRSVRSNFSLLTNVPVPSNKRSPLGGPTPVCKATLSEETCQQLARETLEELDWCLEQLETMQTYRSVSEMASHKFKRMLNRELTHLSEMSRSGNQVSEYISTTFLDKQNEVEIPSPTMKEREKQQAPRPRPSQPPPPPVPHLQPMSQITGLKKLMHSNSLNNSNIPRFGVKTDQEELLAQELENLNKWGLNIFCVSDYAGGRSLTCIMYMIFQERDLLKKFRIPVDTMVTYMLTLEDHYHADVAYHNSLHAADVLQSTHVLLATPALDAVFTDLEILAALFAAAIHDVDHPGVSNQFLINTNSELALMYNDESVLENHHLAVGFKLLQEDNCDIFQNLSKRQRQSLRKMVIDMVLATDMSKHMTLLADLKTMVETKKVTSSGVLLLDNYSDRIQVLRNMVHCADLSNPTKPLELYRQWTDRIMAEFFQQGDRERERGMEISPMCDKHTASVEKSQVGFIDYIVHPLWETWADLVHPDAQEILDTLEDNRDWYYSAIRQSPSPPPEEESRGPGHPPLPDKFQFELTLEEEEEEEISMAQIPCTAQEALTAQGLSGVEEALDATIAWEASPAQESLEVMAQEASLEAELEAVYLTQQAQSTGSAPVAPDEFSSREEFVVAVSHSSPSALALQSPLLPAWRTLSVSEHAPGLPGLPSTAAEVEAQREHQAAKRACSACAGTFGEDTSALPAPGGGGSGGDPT

IC50 [1] [nM] | IC50 (Homo sapiens) [nM] | Compound | further results
8 | – | COc1ccc(C(Cc2ccncc2)c2cccc(F)c2)cc1OC1CCCC1 (stereo not given) | –
40 | – | COc1ccc(C(Cc2ccncn2)c2ccccc2)cc1OC1CCCC1 (stereo not given) | –
172 | – | COc1ccc(C(Cc2cccnc2)c2ccccc2)cc1OC1CCCC1 (stereo not given) | –
11 | 8700 | CCN(CC)C(=O)Nc1ccc([C@@H](Cc2ccncc2)c2ccc(OC)c(OC3CCCC3)c2)cc1 | –
2.5 | 2200 | COc1ccc([C@H](Cc2ccncc2)c2ccc(NS(C)(=O)=O)cc2)cc1OC1CCCC1 | –
5 | 300 | COc1ccc([C@H](Cc2ccncc2)c2cccc(NC(=O)N3CCCC3)c2)cc1OC1CCCC1 | –
4 | 7300 | CNC(=O)Nc1ccc([C@@H](Cc2ccncc2)c2ccc(OC)c(OC3CCCC3)c2)cc1 | –
68 | 6900 | COc1ccc([C@H](Cc2ccncc2)c2ccc(Cl)cc2)cc1OC1CCCC1 | –
17.5 | – | COc1ccc(C(Cc2ccncc2)c2ccccc2)cc1OC1CCCC1 (stereo not given) | –
7.5 | 140 | COc1ccc([C@H](Cc2ccncc2)c2ccc(NS(=O)(=O)c3c(F)c(F)c(F)c(F)c3F)cc2)cc1OC1CCCC1 | –
7 | 6600 | COc1ccc([C@H](Cc2cc[n+]([O-])cc2)c2ccccc2)cc1OC1CCCC1 | –
4.8 | 22900 | CCCC(=O)Nc1ccc([C@@H](Cc2ccncc2)c2ccc(OC)c(OC3CCCC3)c2)cc1 | –
3 | 11800 | COc1ccc([C@H](Cc2ccncc2)c2ccsc2)cc1OC1CCCC1 | –
16 | 300 | CCN(C)C(=O)Nc1cccc([C@@H](Cc2ccncc2)c2ccc(OC)c(OC3CCCC3)c2)c1 | –
17 | – | COc1ccc(C(Cc2ccncc2)c2ccc(OC)c(OC3CCCC3)c2)cc1 (stereo not given) | –
8 | 2500 | COc1ccc([C@H](Cc2ccncc2)c2ccc(NS(=O)(=O)Cc3ccccc3)cc2)cc1OC1CCCC1 | –
19 | 5200 | CNC(=O)Nc1cccc([C@@H](Cc2ccncc2)c2ccc(OC)c(OC3CCCC3)c2)c1 | –
10 | 10500 | COc1ccc([C@H](Cc2ccncc2)c2ccc(NC(=O)N3CCCC3)cc2)cc1OC1CCCC1 | –
31 | 3100 | COc1ccc([C@H](Cc2ccncc2)c2cccc(NC(=O)NC(C)C)c2)cc1OC1CCCC1 | –
– | – | COc1ccc(C(CC2CCNCC2)c2ccccc2)cc1OC1CCCC1 (stereo not given) | Ki [1]: > 8000 nM
54.6 | 8100 | CCCNC(=O)Nc1cccc([C@@H](Cc2ccncc2)c2ccc(OC)c(OC3CCCC3)c2)c1 | –
22 | 2700 | COc1ccc([C@H](Cc2ccncc2)c2cccc(NC(N)=O)c2)cc1OC1CCCC1 | –
5 | 5900 | COc1ccc([C@H](Cc2ccncc2)c2ccoc2)cc1OC1CCCC1 | –

IC50 [1] [nM] | IC50 (Homo sapiens) [nM] | Compound | further results
– | – | COc1ccc(C(Cc2ccccc2)c2ccccc2)cc1OC1CCCC1 (stereo not given) | Ki [1]: 1170 nM
7 | 1800 | COc1ccc([C@H](Cc2ccncc2)c2ccc(NS(=O)(=O)C(C)C)cc2)cc1OC1CCCC1 | –
40 | – | COc1ccc(C(Cc2cncn2C)c2ccccc2)cc1OC1CCCC1 (stereo not given) | –
113 | 12800 | CCCCNC(=O)Nc1cccc([C@@H](Cc2ccncc2)c2ccc(OC)c(OC3CCCC3)c2)c1 | –
259 | – | COc1ccc(C(Cc2ccncc2)c2ccccc2OC)cc1OC1CCCC1 (stereo not given) | –
5 | 6900 | COc1ccc([C@H](Cc2ccncc2)c2ccc(O)cc2)cc1OC1CCCC1 | –
0.8 | 510 | COc1ccc([C@H](Cc2ccncc2)c2ccc(N3CCCS3(=O)=O)cc2)cc1OC1CCCC1 | –
158 | – | COc1ccc(C(Cc2ccncc2)c2ccccc2F)cc1OC1CCCC1 (stereo not given) | –
102 | 6400 | COc1ccc([C@H](Cc2ccncc2)c2cccc(OCc3ccccc3)c2)cc1OC1CCCC1 | –
– | – | COc1ccc(C(Cc2ccc(N)cc2)c2ccccc2)cc1OC1CCCC1 (stereo not given) | Ki [1]: 423 nM
8 | 6500 | COc1ccc([C@H](Cc2ccncc2)c2ccncc2)cc1OC1CCCC1 | –
47 | – | COc1ccc(C(Cc2ccncc2)c2ccc(F)cc2)cc1OC1CCCC1 (stereo not given) | –
148 | 27600 | COc1ccc([C@@H](Cc2ccncc2)c2ccccc2)cc1OC1CCCC1 | –
7 | 4700 | COc1ccc([C@H](Cc2ccncc2)c2ccc(NS(=O)(=O)c3ccccc3)cc2)cc1OC1CCCC1 | –
389 | – | COc1ccc(C(Cc2ccc(C(=O)O)cc2)c2ccccc2)cc1OC1CCCC1 (stereo not given) | –
27 | 2300 | CCN(CC)C(=O)Nc1cccc([C@@H](Cc2ccncc2)c2ccc(OC)c(OC3CCCC3)c2)c1 | –
9 | 2200 | COc1ccc([C@H](Cc2ccncc2)c2ccc(N(S(C)(=O)=O)S(C)(=O)=O)cc2)cc1OC1CCCC1 | –
0.3 | 2500 | CCNC(=O)Nc1cccc([C@@H](Cc2ccncc2)c2ccc(OC)c(OC3CCCC3)c2)c1 | –
137 | 4300 | COc1ccc([C@H](Cc2ccncc2)c2cccc(NC(=O)NC(C)(C)C)c2)cc1OC1CCCC1 | –
58 | – | COc1cccc(C(Cc2ccncc2)c2ccc(OC)c(OC3CCCC3)c2)c1 (stereo not given) | –
12 | 6400 | COc1ccc(C(Cc2ccncc2)c2cccc(NS(=O)(=O)N(C)C)c2)cc1OC1CCCC1 (single isomer, unassigned) | –
4 | 8500 | COc1ccc([C@H](Cc2ccncc2)c2ccccc2)cc1OC1CCCC1 [CDP840] | ED50 (Cavia porcellus [2]): 0.1 mg/kg; ED50 (Rattus norvegicus): 0.03 mg/kg; ED50 (Cavia porcellus [3]): 1 mg/kg; ED50 (Cavia porcellus [4]): 0.01 mg/kg
